One data set concerns primary myotubes. Briefly: Apoptosis / cell death in treated primary myotubes. It is filed as cell-based, mice.
The next data set has as its system YFP+ myotubes. Kind of data set: De-differentiation assay of lineage-marked YFP+ primary myotubes. Type of data set: cell-based, mice. On the procedure: WT myoblasts or Tet-Oct4 (3×10^5) myoblasts upon 4-6 hour infection with 300 MOI of Ad-Cre virus were washed with growth medium twice to get rid of any residual virus and incubated for another 24 hours in growth medium at 37° C. in 5% CO2 incubator. These myoblasts were then lifted off from the plates by addition of 1×PBS, counted (3×10^4 cells/well) and co-cultured with 7×10^4 Lox-YFP myoblasts (obtained from B6.129X1-Gt(ROSA)26Sor^tm1(EYFP)Cos/J mice strain) per well in differentiation inducing medium DMEM (Cellgro)+2% horse serum+1% Penicillin/Streptomycin on 12 well (BD Falcon) on ECM (1:500) coated 12 well plates. […] The inhibitors were then withdrawn and cells were switched to growth medium containing bFGF (9 ng/ml). The treated cells were fed fresh growth medium and bFGF everyday over a period of time and the morphology of YFP expressing myotubes was routinely visualized by epifluorescence microscope using YFP filter and photographed using 10× and 20× objectives. For live Hoechst staining, 4 μM of Hoechst was added everyday to YFP labeled myotube cultures, incubated for 10 minutes at 37° C. in 5% CO2 incubator, washed off to remove unlabeled Hoechst and photographed.
The labeled YFP^+ myotubes per well in 4 day old Cre-Lox myotube cultures were determined to be ˜2600. After inhibitor treatment, ˜350 YFP^+ mononucleated cells were found in culture. […] Another method was based on the determination of Lox YFP myonuclei in labeled myotubes. […] Therefore, reprogramming efficiency calculated was the percent of YFP^+ mononucleated cells out of an estimated total number of Lox YFP myonuclei in YFP^+ myotubes and was determined ˜5.04% [(350/6940)×100] (see FIG. 11D).

The mark [1] stands for this setting: 96 hour old YFP+ myotubes treated daily for 2 days in DM (10 μM), then switched to GM.

We go through 3 compounds from patent publication US10934527B2, “Generation of lineage-restricted progenitor cells from differentiated cells” (The Regents of the University of California, priority 2011, dated 2021).

Entries after “also recorded” stand apart in the source; their conditions may differ.

Turning to `O.O.O.OO.OO.[K+].[OH-].[V].c1cnc2c(c1)ccc1cccnc12` [BpV, potassium bisperoxo(1,10-phenanthroline)oxovanadate], the “cell death / apoptosis of myotubes” value in the data set with primary myotubes (myotubes treated with BpV alone) was “cell death occurred; also recorded: did show apoptosis”. In the data set with YFP+ myotubes (setting [1]), the “de-differentiation frequency / reprogramming efficiency, method 1: percent of YFP+ mononucleated cells out of the total number of labeled YFP+ myotubes” value is about 1.18% and the “reprogramming efficiency, method 2: percent of YFP+ mononucleated cells out of estimated total number of Lox YFP myonuclei in YFP+ myotubes” value was about 0.4%.
In the case of `COc1cccc2c1C(=O)c1c(O)c3c(c(O)c1C2=O)C[C@@](O)(C(=O)CO)C[C@@H]3O[C@H]1C[C@H](N)[C@H](O)[C@H](C)O1` [doxorubicin], the “appearance of YFP+ mononucleated cells from Cre-Lox myotubes” value with YFP+ myotubes (0.2 uM for 48 hours, alone or in combination with the apoptosis inhibitor, then growth media 72-96 hours) is “no YFP^+ mononucleated cells were observed”.
On to “N-(2-Quinolyl)valyl-aspartyl-(2,6-difluorophenoxy)methyl ketone [Q-VD]”, for which the “apoptosis by doxorubicin in Cre-Lox myotube cultures” value in the data set on primary myotubes (with 0.2 uM doxorubicin for 48 hours) is listed as “reduced apoptosis”. In the data set on YFP+ myotubes (treated in DM, then switched to GM), the “appearance of YFP+ mononucleated cells from YFP+ myotubes” value is “no YFP^+ mononucleated cells were observed”.
